Data set [1] relates to metastatic chemo naïve prostate cancer (mCRPC). Particulars: randomized placebo controlled Phase 2 and 3 studies; cited from earlier work.
In data set [2] the test system is Human retinal microvascular endothelial cells (HRMECs). The data set can be described thus: LPS-activated microglia-induced HRMEC tube formation (co-culture). Type of data set: cell-based. The procedure:
The following experimental groups were included in the study: • Group 1: […] Sulforaphane (10 μM, positive control, anti-angiogenic effects) • Group 3: Aflibercept (“Eylea” 40 μg/ml, positive control, partial anti-angiogenic effects) • Group 4: […] Human retinal microvascular endothelial cells (HRMECs) were purchased from Neuromics (Cat #HEC09, Lot #2872) and cultured according to manufacturer's instructions in Endo-Growth media (Cat #EKG001, Lot #EKG0011902269) supplemented with Endothelial Growth Factor (Cat #EKG001, Lot #EGK00125) on AlphaBiocoat coated T25 flasks at 37° C. 5% CO2. […] Human microglia were seeded onto PLL coated cell culture inserts (Sarstedt, Cat #83.3932.040) at 103 000 cells/cm^2. […] The method for co-cultures of microglia and HRMECs was modified from protocol described by Ding et al. 2018 (Ding X, Gu R, Zhang M, Ren H, Shu Q, Xu G, Wu H. Microglia enhanced the angiogenesis, migration and proliferation of co-cultured RMECs. […] PMID: 30223824; PMCID: PMC6142340) and Ji Cho et al. 2019 (Ji Cho M, Yoon […], Park J, Lee J, Park J G, Cho Y L, Hun Kim J, Jang H, Park Y J, Lee S H, Min J K. Oxidative stress-mediated TXNIP loss causes RPE dysfunction. […] PMID: 31615975; PMCID: PMC6802648). Microglia was activated with LPS (100 ng/ml) in microglia complete growth media without FBS with simultaneous treatment of freshly prepared study compounds, Eylea and vehicle for 24 hours. HRMECs were incubated in basal Endo-Growth media for 24 hours before co-culturing. […] Media in microglia inserts containing LPS was replaced to corresponding freshly prepared study compounds, aflibercept and sulforaphane in basal Endo-Growth media. […] 5% CO2, stained with calcein-AM (5 μM) for 30 min and imaged using a fluorescence microscope (Leica Thunder 3D Tissue Imager, Leica Microsystems). Images were analyzed using the AngioTool software (Zudaire E, Gambardella L, Kurcz […] Computational Tool for Quantitative Analysis of Vascular Networks. PLOS ONE 6(11): e27385. https://doi.org/10.1371/journal.pone.0027385) for ImageJ (NIH public domain). Total tube area, tube length, density, lacunarity, and branching index (number of junctions and endpoints) were quantified. Images were analyzed using AngioTool software (NIH, Bethesda, MD; available in the public domain) for the following readouts: average vessels length, total vessels length, vessel area, vessels percentage area, total number of junctions, density of junctions, total number of endpoints, and mean lacunarity. […] Raw data for each of the readouts was plotted and analyzed by ordinary one-way ANOVA with Dunnett's multiple comparisons post-hoc test. […] Effect size data were analyzed by non-parametric Kruskal-Wallis test, with Dunn's multiple comparisons post-hoc test.

Data set [3] concerns bFGF induced corneal vascularisation. The data set can be described thus: bFGF induced corneal vascularisation (pellet in corneal pocket), area of neovascularisation. In kind it is in vivo, C57BL/6 mice.
Data set [4] concerns Human retinal microvascular endothelial cells (HRMECs). As to the kind of experiment: Tube formation assay, combination with aflibercept (contemplated). Type of data set: cell-based. The conditions noted are these: 0.01 and 0.1 μM combined with Aflibercept (30 nM). An excerpt:
Microglia, especially activated microglia play important roles in angiogenesis and maintenance of vascular function haemostasis in the retinal microvasculature (Ding et al 2018). It is contemplated that a co-culture of human retinal microvasculature endothelial cells (HRMEC's) and human microglia from brain can be used to assess the effects of a compound of the disclosure, such as laquinimod, tasquinimod, ABR-215174 or ABR-215691, on neovascularization. A method such as the one outlined below may be used.
This study may be carried out substantially as outlined in Example 3.
Tube formation assay is performed using 24-well plate wells coated with Matrigel or in 96-wells as described Ding et al. 2018 (Ding et al. BMC Ophthalmology (2018) 18:249): A 96-well plate is coated with 50 μL/well Matrigel at 37° C. for 30 min. After co-culturing with microglia for 24 h, HRMECs are seeded on the Matrigel at 1.5×10^4 cells/well in 100 μL medium. After a period of time, for example 4 h, tube formation is observed and photographed with a microscope (Leica Microsystems). Images are analysed using the Angiotool plugin (Zudaire et al., 2011, PLoS one, 6, 11, e27385) for ImageJ (NIH public domain). Total tube area, tube length, density, lacunarity, and branching index (number of junctions and endpoints) are quantified.

A short description of data set [5]: Animal body weight in the ChNV rat study. Type of data set: in vivo, Brown Norway pigmented rats. The conditions noted are these: during the study, oral 0.5 mg/kg 1×/day. The procedure: The body weight of all animals was recorded before the start of the study, then once every week.
Animal body weights were recorded before induction and treatment (baseline) and then once a week. Animal body weights were within the normal range at the baseline: 166-202 g (min−max, n=48). On Day 21, no significant difference between test and control items was observed. […] This loss is an expected adverse effect of orally dosed corticosteroid.

Data set [6] has as its system choroidal neovascularisation. As to the kind of experiment: Laser-induced choroidal neovascularisation rat model, fluorescein angiography leakage score. In kind it is in vivo, Brown Norway pigmented rats. Also noted: key to Mean score of fluorescein leakage: 0 = no leakage, 1 = slight, 2 = moderate, 3 = strongly stained. The conditions noted are these: Per os 0.5 mg/kg 1×/day. As to the method: Forty-eight (48) Brown Norway pigmented rats were divided into six (6) groups of eight (8) animals. Choroidal neovascularization was induced using a 532 nm argon laser photocoagulator (six (6) 75 μm-sized spots at 150 mW for 0.1 sec duration) in the right eyes on Day 0. The test item was administered three times a day by instillation or twice a day by oral administration from Day 0 (DO) just after ChNV induction to Day 21 (last day of the study). Control item (vehicle) was instilled three times a day and the reference item (Dexamethasone in olive oil) was administered by daily oral administration from the Day 0 just after induction of neovascularization to Day 21. Fundus neovessels were evaluated in the right eyes on Days 14 and 21 using Heidelberg's Retinal Angiograph (HRA). Lesion size was determined on choroid flatmounts labelled with Isolectin-B4 at the end of the in vivo period.
On Day 0, animals were anesthetized by an intramuscular injection of a mix of xylazine (5 mg/kg) and ketamine (25 mg/kg). Pupils from the right eyes were dilated by instillation of one drop of 0.5% tropicamide. Then, six (6) choroidal burns (75 μm spot size) were done through a slit-lamp, with a contact lens, around the optic disc, between the main vessel branches using an argon laser photocoagulator (532 nm; 150 mW; 0.1 sec duration). Production of a bubble at the time of laser treatment confirmed the rupture of Bruch's membrane.
Test, control, or reference items were administered topically by instillation (10 μL each) or by oral route (1 mL/kg) from Day 0 (just after the induction) to Day 21 (end of the study). Test and control items were administered three times a day (for instillation) and two times a day (for oral administration). Reference item was administered once a day by oral route.
Fluorescein angiography was performed on Days 14 and 21 using an HRA (Heidelberg's Retinal Angiograph). After anaesthesia (same mix used for ChNV induction) and pupillary dilation, 250 μL/100 g (body weight) of a 10% sodium fluorescein was injected subcutaneously using a 26-G insulin syringe, and fluorescein photos were recorded 10 minutes after dye injection.
The leakage of fluorescein on the angiograms were evaluated by two examiners in a masked fashion and graded as follows: • Score 0, no leakage; • Score 1, slightly stained; • Score 2, moderately stained; • Score 3, strongly stained.
Statistical analysis, using Mann-Whitney U test or appropriate statistical model, were performed on the scoring of lesions visualized by HRA from each animal and on the scoring of the flat mounted preparations.
The grading of fluorescein angiographies (FA) was based on the fluorescence intensity for each lesion. For each treatment group, results were expressed as the group mean score per time-point. Table 1 summarises the evaluation of FA recorded at 10 min on Days 14 and 21 (n=8 animals per group, right eyes). A statistical analysis was performed on the median of the individual intensity scores, using a Kruskall-Wallis test followed by a Mann & Whitney U multiple comparison test, which was used to compare each test, control or reference group.

For data set [7], the system named is VEGF induced corneal vascularisation. The data set can be described thus: VEGF induced corneal vascularisation (pellet in corneal pocket), area of neovascularisation. Type of data set: in vivo, C57BL/6 mice. Also noted: Area of vasc.: unit not given beside the values. The procedure: The area of the neovascularisation can be measured using the formula: Area=0.2·VL·CH·π wherein vessel length (VL) and continuous circumferential zone (in clock hours=CH) are measured as defined in FIG. 1. Treatment with Laquinimod of VEGF Induced Corneal Vascularisation
Hydron pellets for induction of vascularisation were prepared from stimulant (VEGF) and binding agent (sucralfate).
53 CR female C57BL/6 mice aged 6 to 8 weeks were prepared for surgery by anesthetising with 90 mg/kg of pentobarbital, ip. Corneal vascularisation was induced by placement of a pellet in a corneal pocket cut in one eye. Signs for ocular irritation or infection were carefully monitored.
[…] Vascularisation was measured on day 8.

Where [8] appears, read: group 2: 5 mg/kg po qd ×5, measured day 6.
Where [9] appears, read: group 2: 5 mg/kg ip qd ×7, measured day 8.

Consider `COc1cccc2c1c(O)c(C(=O)N(C)c1ccc(C(F)(F)F)cc1)c(=O)n2C` [tasquinimod], for which the “Disease progression (primary endpoint)” value in data set [1] is listed as “significantly delayed”.

Turning to `C[S+]([O-])CCCCN=C=S` (stereo not shown) [sulforaphane, reference compound], the “Normalized effect size on average vessel length” value (shortened to “Normalized effect size”) in data set [2] (10 μM, positive control, set to 100% by normalisation (vehicle 0%)) came to 100%.

Consider `CCN(CC)CCNC(=O)c1c(C)[nH]c(/C=C2\C(=O)Nc3ccc(F)cc32)c1C` [Sutent, reference compound], for which the “Inhibition of corneal vascularisation induced by bFGF” value in data set [3] (40 mg/kg) is recorded as 80%. Besides, in data set [3] (setting [8]), the Area of vasc. is recorded as 0.72 ± 0.08 and the “Area percent of positive control” value stood at 20%.

Consider “Eylea: recombinant protein aflibercept (Eylea) with affinity for VEGF-A, VEGF-B, and PGF”, for which the “Normalized effect size” value in data set [2] (40 μg/ml, normalised to vehicle 0%, sulforaphane 100%) came to 18%.

`Cn1c(=O)c(C(=O)Nc2ccccc2)c(O)c2c(Cl)cccc21` [ABR-215174, 5-chloro-4-hydroxy-1-methyl-2-oxo-1,2-dihydroquinoline-3-carboxylic acid phenylamide]: the “effect on tube formation of combination compared to each compound used as monotherapy” value in data set [4] is on record as “clear additive effect”. In addition, the “Normalized effect size” value in data set [2] (0.1 μM, normalised to vehicle 0%, sulforaphane 100%) is on record as 88.2%.

`C[C@@H]1C[C@H]2[C@@H]3CCC4=CC(=O)C=C[C@]4(C)[C@@]3(F)[C@@H](O)C[C@]2(C)[C@@]1(O)C(=O)CO` [Dexamethasone, reference compound] yielded a body weight loss in data set [5] of 21%. For the same compound, in data set [6] (Day 14), the “% of reduction vs respective vehicle” value worked out at 71% and the “Mean score of fluorescein leakage” value is 0.7. In data set [6] (Day 21), the “% of reduction vs respective vehicle” value is on record as 73% and the “Mean score of fluorescein leakage” value stood at 0.8.

Consider “Avastin: Bevacizumab (Avastin) is an IgG1-based antibody which binds VEGF-A; positive control”, for which the “Inhibition of corneal vascularisation induced by VEGF” value in data set [7] (5 mg/kg (reference)) is recorded as 100%. In addition, in data set [7] (setting [9]), the Area of vasc. is given as 0.00 ± 0.00 and the “Area percent of positive control” value turned out to be 0%.

The record behind these values is patent US12208091B2, “Compounds for treatment of eye diseases associated with excessive vascularisation” (Active Biotech AB, priority 2019, dated 2025).
